Counter-ions that a name gives are not always drawn.
Tests used:
Experiment in all cases: biochemical
ZmDRIK1-K217-P492 = molecular target: T1, ZmDRIK1-K217-P492 (Zea mays, UniProt C0P4K9); settings: read-out: dTm B, sheet ZmDRIK1-K217-P492;; DSF, Boltzmann fit, 0.1% DMSO
T1 construct: kinase domain, K217-P492
T1 sequence (C0P4K9 1-514): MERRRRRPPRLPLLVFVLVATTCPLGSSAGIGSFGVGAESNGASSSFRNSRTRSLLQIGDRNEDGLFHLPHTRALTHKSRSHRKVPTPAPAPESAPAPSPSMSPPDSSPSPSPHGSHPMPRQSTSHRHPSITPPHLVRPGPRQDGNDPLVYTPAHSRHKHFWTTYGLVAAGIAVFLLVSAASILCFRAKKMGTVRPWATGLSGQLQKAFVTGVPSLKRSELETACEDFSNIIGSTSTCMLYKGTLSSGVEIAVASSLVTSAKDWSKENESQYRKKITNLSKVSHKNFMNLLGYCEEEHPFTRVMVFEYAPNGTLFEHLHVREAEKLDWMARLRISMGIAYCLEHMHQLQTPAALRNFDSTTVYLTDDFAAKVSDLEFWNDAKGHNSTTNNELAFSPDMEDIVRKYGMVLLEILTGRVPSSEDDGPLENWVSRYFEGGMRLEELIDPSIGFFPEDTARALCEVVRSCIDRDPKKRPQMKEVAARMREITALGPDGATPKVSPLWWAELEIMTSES

[1] = molecular target: T2, ZmDRIK1 (DROUGHT RESPONSIVE INACTIVE KINASE 1), kinase domain (Zea mays, UniProt C0P4K9); settings: read-out: dTm B, sheet ZmDRIK1-R187-S514;; DSF, Boltzmann fit, 0.1% DMSO
T2 construct: gene ZEAMMB73_Zm00001d028770; ZmDRIK1-KD R187-S514 (kinase domain)
T2 sequence (C0P4K9 187-514): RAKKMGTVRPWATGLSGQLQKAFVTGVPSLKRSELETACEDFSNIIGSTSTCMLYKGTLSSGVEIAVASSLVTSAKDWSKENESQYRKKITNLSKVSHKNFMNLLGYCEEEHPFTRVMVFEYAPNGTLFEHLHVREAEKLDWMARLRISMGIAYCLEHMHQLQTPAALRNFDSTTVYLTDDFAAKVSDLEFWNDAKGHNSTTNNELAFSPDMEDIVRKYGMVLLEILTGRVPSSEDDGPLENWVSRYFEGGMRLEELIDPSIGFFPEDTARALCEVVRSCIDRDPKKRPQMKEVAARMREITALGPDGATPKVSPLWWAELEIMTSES

ZmDRIK1-R187-P492 = molecular target: T3, ZmDRIK1-R187-P492 (Zea mays, UniProt C0P4K9); settings: read-out: dTm B, DSF, Boltzmann fit, 0.1% DMSO
T3 construct: kinase domain, R187-P492
T3 sequence (C0P4K9 1-514): T1 sequence (C0P4K9 1-514)

ZmDRIK1-K217-S514 = molecular target: T4, ZmDRIK1-K217-S514 (Zea mays, UniProt C0P4K9); settings: read-out: dTm B, sheet ZmDRIK1-K217-S514;; DSF, Boltzmann fit, 0.1% DMSO
T4 construct: kinase domain, K217-S514
T4 sequence (C0P4K9 1-514): T1 sequence (C0P4K9 1-514)

Row | ΔTm at 10 µM (ZmDRIK1-K217-P492) [°C] | ΔTm at 10 µM [1] [°C] | ΔTm at 10 µM (ZmDRIK1-R187-P492) [°C] | ΔTm at 10 µM (ZmDRIK1-K217-S514) [°C] | SMILES
1 | -4.29 | -3.39 | -2 | -2.48 | C[C@H](NC(=O)/C(C#N)=C/c1cccc(Br)n1)c1ccccc1 [WP1066]
2 | -1.22 | -0.633 | -0.26 | -0.364 | COc1ccc2c(c1)c(C1=C(c3c[nH]c4ccccc34)C(=O)NC1=O)cn2CCCN(C)C [Go 6983]
3 | -1.24 | -0.702 | -0.367 | -0.335 | CNC(=O)c1ccccc1Sc1ccc2c(/C=C/c3ccccn3)n[nH]c2c1 [Axitinib]
4 | -1.09 | -0.939 | -0.297 | -0.339 | COc1ccc(F)c(F)c1C(=O)c1cnc(NC2CCN(S(C)(=O)=O)CC2)nc1N [R547]
5 | -1.25 | -0.988 | -0.648 | -0.843 | Cc1[nH]c(/C=C2\C(=O)Nc3ccc(S(=O)(=O)Cc4c(Cl)cccc4Cl)cc32)c(C)c1C(=O)N1CCC[C@@H]1CN1CCCC1 [PHA-665752]
6 | -0.79 | -0.75 | -0.00936 | -0.297 | Nc1cccc(-c2cc3c(Oc4cccc(O)c4)ncnc3[nH]2)c1 [TWS119]
7 | -1.16 | -0.748 | -0.337 | -0.324 | CN(C)CCCn1cc(C2=C(c3c[nH]c4ccccc34)C(=O)NC2=O)c2ccccc21 [GF109203X]
8 | -1.26 | -0.784 | -0.337 | -0.386 | O=C1Nc2ccccc2/C1=C1/Nc2ccccc2C1=O [Indirubin]
9 | -1.48 | -0.701 | -0.479 | -0.612 | CC(C)CCN1c2nc(Nc3cc(F)c(O)c(F)c3)ncc2N(C)C(=O)C1C (stereo not shown) [BI-D1870]
10 | -9.25 | -19.8 | -5.14 | -2.84 | Cc1cn(-c2cc(NC(=O)c3ccc(C)c(Nc4nccc(-c5cccnc5)n4)c3)cc(C(F)(F)F)c2)cn1 [Nilotinib (AMN-107)]
11 | -1.16 | -0.726 | -0.326 | -0.306 | Cc1cc(NC(=O)c2cccc(NC(=O)/C=C/CN(C)C)c2)ccc1Nc1nccc(-c2cccnc2)n1 [JNK-IN-8]
12 | -0.977 | -1.09 | -0.103 | -0.203 | CC(C)(C)c1cnc(CSc2cnc(NC(=O)C3CCNCC3)s2)o1 [SNS-032 (BMS-387032)]
13 | -1.33 | -0.678 | -0.261 | -0.275 | Cn1cc(C2=C(c3cn(C4CCN(Cc5ccccn5)CC4)c4ccccc34)C(=O)NC2=O)c2ccccc21 [Enzastaurin (LY317615)]
14 | -1.02 | -0.758 | -0.447 | -0.373 | CC1=C(C(=O)Nc2cc3cn[nH]c3cc2F)C(c2ccc(C(F)(F)F)cc2)CC(=O)N1 (stereo not shown) [GSK429286A]
15 | -1.01 | -0.808 | -0.24 | -0.221 | CC1(C)CNc2cc(NC(=O)c3cccnc3NCc3ccncc3)ccc21 [Motesanib Diphosphate (AMG-706)]
16 | -0.505 | -0.951 | -0.39 | -0.482 | Cc1ccc(C(=O)Nc2ccc(CN3CCN(C)CC3)c(C(F)(F)F)c2)cc1C#Cc1cnc2cccnn12 [Ponatinib (AP24534)]
17 | -0.341 | -0.879 | -0.166 | -0.375 | COc1cc2ncc(-c3ccccc3)nc2cc1OC [Tyrphostin AG 1296]
18 | -1.16 | -0.693 | -0.204 | -0.29 | CCn1c2ccccc2c2cc(Nc3ccnc(NCCCN4CCOCC4)n3)ccc21 [EHop-016]
19 | -0.0662 | -21.5 | -7.37 | -0.89 | CCCS(=O)(=O)Nc1ccc(F)c(C(=O)c2c[nH]c3ncc(-c4ccc(Cl)cc4)cc23)c1F [Vemurafenib (PLX4032)]

Row | ΔTm at 10 µM (ZmDRIK1-K217-P492) [°C] | ΔTm at 10 µM [1] [°C] | ΔTm at 10 µM (ZmDRIK1-R187-P492) [°C] | ΔTm at 10 µM (ZmDRIK1-K217-S514) [°C] | SMILES
20 | -0.984 | -1.03 | -0.199 | -0.49 | COc1ccc(CNC(=O)Nc2ncc([N+](=O)[O-])s2)cc1 [AR-A014418]
21 | -1.11 | -0.488 | -0.291 | -0.33 | CCN1/C(=C/C(C)=O)Sc2ccc(OC)cc21 [TG003]
22 | -1.04 | -0.715 | -0.2 | -0.29 | Cc1cc([C@@H](C)Nc2ccccc2C(=O)O)c2nc(N3CCOCC3)cc(=O)n2c1 [AZD6482]
23 | -1.1 | -1.15 | -0.749 | -0.517 | CN1CCN(c2ccc(OC(F)(F)F)c(Nc3ncc4c(n3)-c3c(c(C(N)=O)nn3CCO)CC4)c2)CC1 [NMS-P937 (NMS1286937)]
24 | -0.95 | -0.481 | -0.478 | -0.368 | O=C(Nc1ccc(-c2ccnc(Nc3ccc(N4CCOCC4)cc3)n2)cc1)C1CCCN1 (stereo not shown) [XL019]
25 | -1.46 | -0.814 | -0.491 | -0.473 | COc1cc(Nc2c(C#N)cnc3cc(OCCCN4CCN(C)CC4)c(OC)cc23)c(Cl)cc1Cl [Bosutinib (SKI-606)]
26 | -0.787 | -1.22 | -0.506 | -0.298 | N#Cc1ccc2[nH]c(O)c(-c3ccc(CN4CCOCC4)cn3)c2c1 [AZD1080]
27 | 1.04 | 0.0273 | -0.0853 | 0.03 | C1=N/C2=N/c3ccc(OCCN4CCCC4)c(c3)COC/C=C/COCc3cccc(c3)C(=C1)N2 [Pacritinib (SB1518)]
28 | -0.248 | -0.839 | -0.28 | -0.43 | CNC(=O)c1ccc(C)c(-n2c(C)cc(OCc3ccc(F)cc3F)c(Br)c2=O)c1 [PH-797804]
29 | -0.527 | -25.6 | 0.579 | 1.35 | CC(C)(O)CC(=O)NCCn1ccc2ncnc(Nc3ccc(Oc4cccc(C(F)(F)F)c4)c(Cl)c3)c21 [TAK-285]
30 | -0.86 | -1.16 | -0.495 | -0.374 | C[C@H](Nc1ncnc2nc[nH]c12)c1cc2cccc(Cl)c2c(=O)n1-c1ccccc1 [IPI-145 (INK1197)]
31 | -0.949 | -0.908 | -0.0771 | -0.253 | O=S(=O)(c1cccc2cnccc12)N1CCCNCC1 [Fasudil (HA-1077) HCl]
32 | -0.856 | -0.906 | -0.161 | -0.215 | Cc1cc(Nc2nc(N[C@@H](C)c3ncc(F)cn3)ncc2Cl)[nH]n1 [AZD1480]
33 | -0.668 | -0.773 | -0.00437 | -0.119 | COc1ccc(-c2ccc3c(N4CCOC[C@@H]4C)nc(N4CCOC[C@@H]4C)nc3n2)cc1CO [AZD8055]
34 | -1.08 | -0.678 | -0.153 | -0.204 | CCn1c(-c2nonc2N)nc2c(C#CC(C)(C)O)ncc(OC[C@H]3CCCNC3)c21 [GSK690693]
35 | -0.748 | -0.774 | -0.393 | -0.258 | Cc1nc(Nc2n[nH]c3c2CN(C(=O)N[C@H](CN(C)C)c2ccccc2)C3(C)C)c2sccc2n1 [PF-3758309]
36 | -0.453 | -0.526 | -0.209 | -0.0308 | CC1(COc2ccc3c(c2)ncn3-c2ccc3cccc(N4CCC(N)CC4)c3n2)COC1 [Crenolanib (CP-868596)]
37 | -0.814 | -1.09 | -0.157 | -0.286 | Cc1cc(CN2CCN(c3c(Br)cnc4nc(-c5ccc(N6CCN(C)CC6)cc5)[nH]c34)CC2)no1 [CCT137690]

Reference: paper PMC7158045 (BMC Plant Biology, 2020)
